Test results taken from ChEMBL document CHEMBL1201862, “PubChem BioAssay data set” (2004).
Several values for one entry are separate records, joined by “and”; a condition that tells them apart may be missing. Equal entries are not always repeated.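 Compound exposure: 48 hours, 5 concentrations, 96-well plates. The concentration for 50% growth inhibition is given as GI50.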 Activity calls are given as the source filed them. No stated cut-off is given here; in the data, active = GI50 up to about 1.1 µM and inactive = higher.

What was measured:
Experiment in all cases: NCI tumour cell line growth inhibition, 48 h
MDA-MB-231 = test system: MDA-MB-231
OVCAR-3 = test system: OVCAR-3
SF-268 = test system: SF-268
Malme-3M = test system: Malme-3M
HOP-62 = test system: HOP-62
RPMI-8226 = test system: RPMI-8226
MDA-MB-435 = test system: MDA-MB-435
SF-539 = test system: SF-539
NCI/ADR-RES = test system: NCI/ADR-RES
RXF 393 = test system: RXF 393
IGROV-1 = test system: IGROV-1
PC-3 = test system: PC-3
SNB-75 = test system: SNB-75
TK-10 = test system: TK-10
HOP-92 = test system: HOP-92
SK-OV-3 = test system: SK-OV-3
K562 = test system: K562
UO-31 = test system: UO-31
OVCAR-5 = test system: OVCAR-5
U-251 = test system: U-251
NCI-H522 = test system: NCI-H522
SNB-19 = test system: SNB-19
CAKI-1 = test system: CAKI-1
SR = test system: SR
HCC 2998 = test system: HCC 2998
LOX IMVI = test system: LOX IMVI
M14 = test system: M14
COLO 205 = test system: COLO 205
OVCAR-4 = test system: OVCAR-4
A549 = test system: A549
786-0 = test system: 786-0
NCI-H226 = test system: NCI-H226
ACHN = test system: ACHN
HCT-116 = test system: HCT-116
NCI-H460 = test system: NCI-H460
T47D = test system: T47D
HCT-15 = test system: HCT-15
UACC-62 = test system: UACC-62
Hs-578T = test system: Hs-578T
SK-MEL-5 = test system: SK-MEL-5
MDA-N = test system: MDA-N
HT-29 = test system: HT-29
SW-620 = test system: SW-620
SN12C = test system: SN12C
OVCAR-8 = test system: OVCAR-8
SK-MEL-28 = test system: SK-MEL-28
KM12 = test system: KM12
MCF7 = test system: MCF7
DU-145 = test system: DU-145
CCRF-CEM = test system: CCRF-CEM
NCI-H23 = test system: NCI-H23
SF-295 = test system: SF-295
MOLT-4 = test system: MOLT-4
BT-549 = test system: BT-549
SK-MEL-2 = test system: SK-MEL-2
A498 = test system: A498
UACC-257 = test system: UACC-257
HL-60 = test system: HL-60

Measured: GI50

Clc1ncnc(Cl)c1Cl
> 100 µM: HCT-15
inactive: MDA-MB-231 > 100 µM | OVCAR-3 > 100 µM | SF-268 > 100 µM | Malme-3M > 100 µM | HOP-62 > 100 µM | RPMI-8226 4.41 µM | MDA-MB-435 > 100 µM | SF-539 > 100 µM | NCI/ADR-RES > 100 µM | RXF 393 > 100 µM | IGROV-1 > 100 µM | PC-3 > 100 µM | SNB-75 > 100 µM | TK-10 > 100 µM | HOP-92 > 100 µM | SK-OV-3 > 100 µM | K562 > 100 µM | UO-31 > 100 µM | OVCAR-5 > 100 µM | U-251 > 100 µM | NCI-H522 > 100 µM | SNB-19 > 100 µM | CAKI-1 > 100 µM | SR > 100 µM | HCC 2998 > 100 µM | LOX IMVI > 100 µM | M14 > 100 µM | COLO 205 > 100 µM | OVCAR-4 > 100 µM | A549 > 100 µM | 786-0 > 100 µM | NCI-H226 > 100 µM | ACHN > 100 µM | HCT-116 > 100 µM | NCI-H460 > 100 µM | T47D > 100 µM | UACC-62 > 100 µM | Hs-578T > 100 µM | SK-MEL-5 > 100 µM | MDA-N > 100 µM | HT-29 > 100 µM | SW-620 > 100 µM | SN12C > 100 µM | OVCAR-8 > 100 µM | SK-MEL-28 > 100 µM | KM12 > 100 µM | MCF7 > 100 µM | DU-145 > 100 µM | CCRF-CEM > 100 µM | NCI-H23 > 100 µM | SF-295 > 100 µM | MOLT-4 > 100 µM

CC(C)=CCC/C(C)=C\CCC1(C)OC(=O)C2CC21 (stereo not given)
inactive: MDA-MB-231 50.5 µM | OVCAR-3 51.5 µM and 27.5 µM | SF-268 > 100 µM | Malme-3M 80.2 µM | HOP-62 > 100 µM and 53.5 µM | BT-549 31.8 µM and 34 µM | RPMI-8226 28.3 µM and 19.7 µM | NCI/ADR-RES 42.4 µM and 33.3 µM | RXF 393 40.6 µM | SK-MEL-2 45.6 µM | PC-3 25.9 µM and 35.4 µM | SNB-75 55.7 µM | TK-10 56.6 µM | K562 22.4 µM and 17.2 µM | UO-31 44.4 µM and 37.2 µM | OVCAR-5 > 100 µM | A498 98.9 µM | SNB-19 > 100 µM and 71.1 µM | CAKI-1 23.8 µM and 32.3 µM | HCC 2998 21.1 µM and 36.1 µM | LOX IMVI 15 µM and 27.7 µM | COLO 205 49.1 µM and 59.8 µM | UACC-257 73.6 µM and 47.3 µM | T47D > 100 µM and 63.4 µM | SK-MEL-5 43.6 µM and 41.1 µM | DU-145 92.7 µM | NCI-H23 28.7 µM and 40.4 µM | HL-60 18.5 µM and 12.3 µM | MOLT-4 18.1 µM and 22.7 µM

COc1ccccc1/C=C1\S/C(=N/Nc2nc(C)c(C(C)=O)s2)NC1=O
inactive: MDA-MB-231 22.8 µM | OVCAR-3 26.9 µM | SF-268 22.8 µM | HOP-62 81.1 µM | RPMI-8226 30.4 µM | MDA-MB-435 32.6 µM | SF-539 44.1 µM | NCI/ADR-RES 43.8 µM | RXF 393 69 µM | SK-MEL-2 64.1 µM | PC-3 43.6 µM | SNB-75 24.5 µM | TK-10 40.6 µM | HOP-92 19.6 µM | SK-OV-3 74.1 µM | K562 34 µM | UO-31 37.2 µM | OVCAR-5 83 µM | U-251 33.7 µM | A498 22.8 µM | SNB-19 51.2 µM | CAKI-1 57.3 µM | SR 31 µM | HCC 2998 94.6 µM | LOX IMVI 43.2 µM | M14 74 µM | COLO 205 22.9 µM | OVCAR-4 > 100 µM | A549 44.8 µM | 786-0 29.4 µM | NCI-H226 5.3 µM | UACC-257 49.8 µM | ACHN 49.1 µM | HCT-116 43.3 µM | NCI-H460 55.7 µM | T47D 25.6 µM | UACC-62 36.4 µM | Hs-578T 25.4 µM | SK-MEL-5 19.7 µM | MDA-N 29.9 µM | HT-29 42.9 µM | SW-620 46.1 µM | SN12C 65.9 µM | OVCAR-8 33.3 µM | SK-MEL-28 40.6 µM | KM12 38 µM | MCF7 25.6 µM | DU-145 69.7 µM | CCRF-CEM 43.4 µM | NCI-H23 42.1 µM | HL-60 26.1 µM | SF-295 51.5 µM | MOLT-4 35.6 µM
